Activity, T1/2 and EC50 data for one compound are collected here from ChEMBL document CHEMBL1821597, “Copper-mediated nuclease activity of jadomycin B” (Bioorg Med Chem, 2011).

Active and inactive are the calls of the source. The calls are words filed in the database; no cut-off is given here.

Test [1] deals with Nucleic Acid. As to the kind of experiment: Induction of single strand cleavage in supercoiled pDesR3 DNA at 10 uM after 3 hrs by agarose gel electrophoresis in presence of equimolar Cu(OAc)2 and DMSO. The format is nucleic-acid assay.
Test [2] has as its system Nucleic Acid. As to the kind of experiment: Induction of double strand cleavage in supercoiled pDesR3 DNA at 10 uM after 2 to 12 hrs by agarose gel electrophoresis in presence of equimolar Cu(OAc)2. It counts as nucleic-acid assay.
In test [3] the test system is Nucleic Acid. Kind of test: Induction of single strand cleavage in supercoiled pDesR3 DNA at 10 uM after 3 hrs by agarose gel electrophoresis in presence of equimolar Cu(OAc)2 and EDTA. It counts as nucleic-acid assay.
Test [4] concerns Nucleic Acid. As to the kind of experiment: Induction of single strand cleavage in supercoiled pDesR3 DNA at 10 uM after 3 hrs by agarose gel electrophoresis in presence of equimolar Cu(OAc)2 and catalase. It counts as nucleic-acid assay.
In test [5] the test system is Nucleic Acid. As to the kind of experiment: Induction of single strand cleavage in supercoiled pDesR3 DNA at 10 uM after 3 hrs by agarose gel electrophoresis in presence of equimolar Cu(OAc)2 and NaN3. The format is nucleic-acid assay.
Test [6] has as its system Nucleic Acid. As to the kind of experiment: Induction of single strand cleavage in supercoiled pDesR3 DNA at 10 uM after 3 hrs by agarose gel electrophoresis in presence of equimolar Cu(OAc)2 and SOD. It counts as nucleic-acid assay.
Test [7] relates to Nucleic Acid. Kind of test: Induction of supercoiled pDesR3 DNA cleavage assessed as half life of DNA cleavage after 2 to 12 hrs by agarose gel electrophoresis. It counts as nucleic-acid assay.
Another test has as its system T47D. Kind of test: Cytotoxicity against human T47D cells. The format is functional, cell-based.
For test [8], the system named is Nucleic Acid. As to the kind of experiment: Induction of single strand cleavage in supercoiled pDesR3 DNA at 10 uM after 2 to 12 hrs by agarose gel electrophoresis in presence of equimolar Cu(OAc)2. The format is nucleic-acid assay.
The subject of test [9] is Nucleic Acid. Kind of test: Induction of supercoiled pDesR3 DNA cleavage at 10 uM after 2 to 12 hrs by agarose gel electrophoresis. It counts as nucleic-acid assay.
Test [10] has as its system Nucleic Acid. Kind of test: Induction of single strand cleavage in laser-enhanced supercoiled pDesR3 DNA assessed as reduction in time required for single-strand break at 10 uM after 5 mins by agarose gel electrophoresis relative to control in presence of equimolar Cu(OAc)2. The format is nucleic-acid assay. More on the design: scale not given: the % may be the effect or the level left.

For the next test, the system named is MDA-MB-435. Kind of test: Cytotoxicity against human MDA-MB-435 cells. It counts as functional, cell-based.
For test [11], the system named is Nucleic Acid. As to the kind of experiment: Induction of supercoiled pDesR3 DNA cleavage after 2 to 12 hrs by agarose gel electrophoresis. It counts as nucleic-acid assay.
The subject of test [12] is Nucleic Acid. As to the kind of experiment: Binding affinity at calf thymus DNA at 10 uM by UV-Vis spectrophotometer. It counts as nucleic-acid assay. Conditions: Bos taurus.
The subject of test [13] is Nucleic Acid. As to the kind of experiment: Induction of single strand cleavage in supercoiled pDesR3 DNA at 10 uM after 3 hrs by agarose gel electrophoresis in presence of equimolar Cu(OAc)2 and t-BuOH. The format is nucleic-acid assay.

Broadly, the EC50 is the concentration giving half of the maximal effect. Regarding `CC[C@H](C)[C@H]1C(=O)O[C@H]2c3cc(C)cc(O)c3C3=C(C(=O)c4c(O[C@H]5C[C@@H](O)[C@@H](O)[C@H](C)O5)cccc4C3=O)N12` [JADOMYCIN B], the outcome in the test on Nucleic Acid [1], in the test with Nucleic Acid [2], with Nucleic Acid [3], with Nucleic Acid [4], with Nucleic Acid [5] and in the test with Nucleic Acid [6] was inactive. In addition, the outcome with Nucleic Acid [9], with Nucleic Acid [12] and in the test on Nucleic Acid [13] was inactive. In addition, the T1/2 in the test with Nucleic Acid [7] turned out to be 45 min. For the same compound, the figures for the EC50 in the test with T47D, with MDA-MB-435 and in the test on Nucleic Acid [11] were 9.92 µM, 6.89 µM and 1.7 µM, respectively. The result in the test on Nucleic Acid [8] was Active. Besides, the Activity in the test on Nucleic Acid [10] amounted to 98%.
